Measurements taken from patent US20210069286A1, “COMPOSITIONS AND METHODS FOR TREATING OR PREVENTING HYPERGLYCEMIA, INSULIN RESISTANCE, AND […] DAMAGE” (9 Meters Biopharma, Inc., priority 2018, published 2021).
No end group written: not given here.

Key:
tight junction = experiment: activity as tight junction regulators; conditions: for activity as tight junction regulators: fragment alone
From the text: See US 2016/0022760, which is hereby incorporated by reference in its entirety. […] It is believed that an aminopeptidase located within the brush borders of the lumen surface may create larazotide-derived fragments, including fragments missing N-terminal glycine residues.

[1] = tested on: intestinal disease symptoms; conditions: clinical trials, cited from earlier work

Row | Substance | activity as tight junction regulator (tight junction; fragments GVLVQPG and VLVQPG mixed with full length larazotide) | activity at reducing intestinal disease symptoms ([1]; higher doses (e.g., 1 mg and 2 mg doses)) | benefit at reducing intestinal disease symptoms ([1]; lower doses (e.g., 0.5 mg dose)) | activity as tight junction regulators (tight junction)
1 | GGVLVQPG [Larazotide] | completely abolished | attenuation of activity, or no activity at all | benefit | 
2 | GVLVQPG [larazotide-derived fragment missing N-terminal glycine residue] |  |  |  | largely inactive
3 | VLVQPG [larazotide-derived fragment missing N-terminal glycine residues] |  |  |  | largely inactive
